Source: ChEMBL document CHEMBL5032490, “Neuroactive Type-A γ-Aminobutyric Acid Receptor Allosteric Modulator Steroids from the Hypobranchial Gland of Marine Mollusk, Conus geographus” (J Med Chem, 2021)
Calls of active or inactive are those of the source.

Columns and labels:
[1] = target: T1, GABA-A receptor; alpha-3/beta-3/gamma-2 (Homo sapiens, UniProt P18507+P28472+P34903); assay: Negative allosteric modulation activity at human GABAA alpha3beta3gamma2 stably expressed in HEK cells by whole cell patch clamp method; format: cell-based
T1 sequence (P18507 whole entry): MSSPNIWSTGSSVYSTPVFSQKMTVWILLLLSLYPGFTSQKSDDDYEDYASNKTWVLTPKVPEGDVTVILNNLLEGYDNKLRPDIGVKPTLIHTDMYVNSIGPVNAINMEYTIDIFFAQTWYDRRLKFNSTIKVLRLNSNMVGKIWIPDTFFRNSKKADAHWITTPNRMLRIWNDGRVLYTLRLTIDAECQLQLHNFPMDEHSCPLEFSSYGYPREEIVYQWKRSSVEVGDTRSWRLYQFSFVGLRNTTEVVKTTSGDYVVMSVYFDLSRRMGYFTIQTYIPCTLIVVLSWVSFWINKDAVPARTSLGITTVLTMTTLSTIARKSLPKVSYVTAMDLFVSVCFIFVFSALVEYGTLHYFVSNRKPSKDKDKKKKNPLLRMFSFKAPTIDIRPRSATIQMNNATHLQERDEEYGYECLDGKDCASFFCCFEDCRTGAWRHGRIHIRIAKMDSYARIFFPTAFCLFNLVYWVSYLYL
T1 sequence (P28472 whole entry): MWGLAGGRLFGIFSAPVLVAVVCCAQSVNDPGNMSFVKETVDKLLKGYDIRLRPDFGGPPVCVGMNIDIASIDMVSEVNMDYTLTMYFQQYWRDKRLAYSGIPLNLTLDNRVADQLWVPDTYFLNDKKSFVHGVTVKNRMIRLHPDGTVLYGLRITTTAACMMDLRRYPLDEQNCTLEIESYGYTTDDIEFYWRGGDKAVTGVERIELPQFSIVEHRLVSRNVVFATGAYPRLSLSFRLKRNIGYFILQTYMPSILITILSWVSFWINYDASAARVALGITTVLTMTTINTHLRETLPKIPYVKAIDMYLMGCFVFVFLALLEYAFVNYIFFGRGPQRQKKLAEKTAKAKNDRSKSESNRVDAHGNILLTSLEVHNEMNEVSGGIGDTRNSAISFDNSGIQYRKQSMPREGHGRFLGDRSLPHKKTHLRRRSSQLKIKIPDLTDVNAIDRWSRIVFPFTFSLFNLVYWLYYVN
T1 sequence (P34903 whole entry): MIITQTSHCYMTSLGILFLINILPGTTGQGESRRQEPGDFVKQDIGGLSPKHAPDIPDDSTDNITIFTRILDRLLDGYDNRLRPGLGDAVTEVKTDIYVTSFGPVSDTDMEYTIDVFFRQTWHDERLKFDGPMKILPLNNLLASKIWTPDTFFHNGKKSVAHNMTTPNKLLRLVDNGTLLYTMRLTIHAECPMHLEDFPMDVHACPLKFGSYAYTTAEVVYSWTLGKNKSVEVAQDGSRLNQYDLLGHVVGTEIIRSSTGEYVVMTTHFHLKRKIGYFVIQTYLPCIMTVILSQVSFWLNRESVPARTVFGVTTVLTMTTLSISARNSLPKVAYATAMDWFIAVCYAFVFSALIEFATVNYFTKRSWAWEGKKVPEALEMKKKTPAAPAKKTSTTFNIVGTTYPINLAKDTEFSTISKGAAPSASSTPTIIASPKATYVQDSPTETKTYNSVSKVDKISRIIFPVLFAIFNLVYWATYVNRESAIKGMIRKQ

[2] = target: T2, GABA-A receptor; alpha-5/beta-3/gamma-2 (Homo sapiens, UniProt P18507+P28472+P31644); assay: Negative allosteric modulation activity at human GABAA alpha5beta3gamma2 stably expressed in HEK cells by patch clamp method; format: cell-based
T2 sequence (P18507 whole entry): T1 sequence (P18507 whole entry)
T2 sequence (P28472 whole entry): T1 sequence (P28472 whole entry)
T2 sequence (P31644 whole entry): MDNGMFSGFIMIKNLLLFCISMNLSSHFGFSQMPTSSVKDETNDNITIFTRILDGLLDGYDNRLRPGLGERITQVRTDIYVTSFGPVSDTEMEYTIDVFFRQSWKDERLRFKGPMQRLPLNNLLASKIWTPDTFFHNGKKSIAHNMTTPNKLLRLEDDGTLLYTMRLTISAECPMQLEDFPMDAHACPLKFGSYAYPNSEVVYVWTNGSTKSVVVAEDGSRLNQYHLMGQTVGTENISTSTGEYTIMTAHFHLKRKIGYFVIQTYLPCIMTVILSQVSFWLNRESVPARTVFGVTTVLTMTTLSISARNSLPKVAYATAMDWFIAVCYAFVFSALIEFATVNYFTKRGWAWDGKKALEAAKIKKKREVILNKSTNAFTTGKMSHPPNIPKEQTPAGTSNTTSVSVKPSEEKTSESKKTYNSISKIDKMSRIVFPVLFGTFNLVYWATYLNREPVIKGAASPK

Neuron [3] = assay: Negative allosteric modulation of human GABA receptor expressed in mouse DRG neurons assessed as inhibition of 340 nM GABA-induced responses at 0.5 uM using nociceptor; format: tissue-based; conditions: filed as negative allosteric modulator
Neuron [4] = assay: Negative allosteric modulation of mouse GABA receptor in mouse non-peptidergic nociceptive DRG neurons assessed as inhibition of KCl-induced response at 10 uM; format: tissue-based; conditions: filed as negative allosteric modulator
Neuron [5] = assay: Negative allosteric modulation of mouse GABA receptor in mouse C-low-threshold mechanoreceptive DRG neurons assessed as inhibition of KCl-induced response at 10 uM; format: tissue-based; conditions: filed as negative allosteric modulator
Neuron [6] = assay: Negative allosteric modulation of mouse GABA receptor in mouse DRG neurons assessed as inhibition of KCl-induced response at 10 uM using cold thermosensors; format: tissue-based; conditions: filed as negative allosteric modulator

CC(C)CCC[C@@H](C)[C@H]1CC[C@H]2[C@@H]3C(=O)C=C4C=CCC[C@]4(C)[C@H]3CC[C@]12C
IC50 [1]: 5.5 µM | IC50 [2]: 19.4 µM | Activity (Neuron [3]): Active | Activity (Neuron [4]): Active | Activity (Neuron [5]): Active | Activity (Neuron [6]): Active
